Measurements: US20230123488A1, “STABLE TOPICAL TETRACYCLINE COMPOSITIONS” (VYNE THERAPEUTICS INC., priority 2017, published 2023)
Structures can show the parent of a compound that is named as a salt. Where two headings read alike, the source gives them in different places.

What was measured:
[1] = Doxycycline solubility in various solvents; assay type: physicochemical; conditions: supernatant
Procedure: Saturated solutions of doxycycline hyclate are prepared by stirring doxycycline in approximately 20 g of solvents for over 48 hours at room temperature. By the end of stirring, all samples have solids in equilibrium with liquids. The samples are filtered and subjected to quantification using UPLC.
Each composition was subjected to centrifugation and the supernatant with dissolved active agent analyzed. The weight /weight percentage of active agent found dissolved in each solvent is shown below: […]

[2] = Cyclomethicone 5 NF, Diisopropyl adipate, Hydrogenated Castor Oil, MCT Oil, cited from earlier work
[3] = Compatibility test of active agent with excipients; assay type: physicochemical; conditions: excipients: soybean oil, paraffin 57-64, polyvinyl alcohol and hydroxypropylcellulose (klucel)
Procedure: Compatibility tests were performed as described in US8,343,945 and US8,945,516, which are incorporated here by reference with respect to the excipients and their compatibility described herein. […] The mixture was assessed for active agent degradation and optionally for color change.

[4] = in Isopropyl myristate, room temperature, 72 hours
[5] = in Oleic acid, room temperature, 72 hours

Molecule	Doxycycline content (solubility) [1, 4]	Doxycycline content (solubility) [1, 5]	Compatibility with excipients ([2]; excipients: Aerosil, Almond oil, Avocado oil, Beeswax, Behenyl alcohol, Calendula oil, Castor oil, Cetearyl octanoate, Cetostearyl alcohol, Cetyl alcohol, Cocoglycerides, Coconut oil, Gelled mineral oil, Grape seed oil, Hard Fat, Isododecane, isopropyl myristate, Isostearyl alcohol, Jojoba oil, Menthol, Myrist)	Compatibility with additional excipients [3]	Compatibility with excipients ([2]; excipients: Cetearyl octanoate, Ethanol 95%, Hexylene glycol, Isostearic acid, Mineral Oil, Myristyl alcohol, Oleyl alcohol, PEG 100 Stearate, PPG-15 Stearyl Ether, Sorbitan Monostearate (SPAN 60), Stearyl alcohol)	Doxycycline content (solubility) ([1]; in 1,3 propane-di-ol, room temperature, 72 hours)	Doxycycline content (solubility) ([1]; in Dimethyl isosorbide, excess doxycycline hyclate stirred at room temperature for 72 hours)	Doxycycline content (solubility) ([1]; in Dimethyl sulfoxide, room temperature, 72 hours)	Doxycycline content (solubility) ([1]; in Ethanol, room temperature, 72 hours)	Doxycycline content (solubility) ([1]; in Glycerin, room temperature, 72 hours)	Doxycycline content (solubility) ([1]; in Hexylene glycol, room temperature, 72 hours)	Doxycycline content (solubility) ([1]; in Isopropanol, room temperature, 72 hours)	Doxycycline content (solubility) ([1]; in Oleyl alcohol, room temperature, 72 hours)	Doxycycline content (solubility) ([1]; in Propylene carbonate, room temperature, 72 hours)	Doxycycline content (solubility) ([1]; in Propylene glycol, room temperature, 72 hours)	Doxycycline content (solubility) ([1]; in Transcutol, room temperature, 72 hours)
C[C@H]1c2cccc(O)c2C(=O)C2=C(O)[C@]3(O)C(=O)C(C(N)=O)=C(O)[C@@H](N(C)C)[C@@H]3[C@@H](O)[C@@H]21 [doxycycline, Doxycycline]	Not detected	Not detected	–	–	–	–	–	–	–	–	–	–	–	–	–	–
CN(C)c1ccc(O)c2c1C[C@H]1C[C@H]3[C@H](N(C)C)C(O)=C(C(N)=O)C(=O)[C@@]3(O)C(O)=C1C2=O [minocycline HCL, Minocycline HCL]	–	–	compatible	compatible	–	–	–	–	–	–	–	–	–	–	–	–
Doxycycline Hyclate [Dox hyclate]	Not detected	Not detected	–	–	compatible	21.56 % w/w	4.12 % w/w	25.34 % w/w	3.15 % w/w	18.28 % w/w	5.47 % w/w	1.67 % w/w	0.29 % w/w	0.78 % w/w	34.17 % w/w	16.30 % w/w
